PubChem BioAssay (NCI)
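Protocol summary: plate cells (96-well), add compound at 5 concentrations, incubate 48 h, interpolate endpoints linearly. GI50 marks 50% less growth. TGI is the concentration that stops growth completely.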

Legend:
Test in all cases: NCI-60 cell line screen, 48 h
SW-620 colon = test system: SW-620 colon
SF-539 CNS = test system: SF-539 CNS
MALME-3M melanoma = test system: MALME-3M melanoma
ACHN renal = test system: ACHN renal
SF-295 CNS = test system: SF-295 CNS
SNB-19 CNS = test system: SNB-19 CNS
BT-549 breast = test system: BT-549 breast
COLO 205 colon = test system: COLO 205 colon
OVCAR-3 ovarian = test system: OVCAR-3 ovarian
K-562 leukemia = test system: K-562 leukemia
HCT-116 colon = test system: HCT-116 colon
CAKI-1 renal = test system: CAKI-1 renal
MDA-MB-231 breast = test system: MDA-MB-231 breast
HL-60(TB) leukemia = test system: HL-60(TB) leukemia
SR leukemia = test system: SR leukemia
UACC-62 melanoma = test system: UACC-62 melanoma
UACC-257 melanoma = test system: UACC-257 melanoma
NCI-H23 lung = test system: NCI-H23 lung
NCI-H522 lung = test system: NCI-H522 lung
HS 578T breast = test system: HS 578T breast
MOLT-4 leukemia = test system: MOLT-4 leukemia
SF-268 CNS = test system: SF-268 CNS
HT29 colon = test system: HT29 colon
SK-MEL-28 melanoma = test system: SK-MEL-28 melanoma
HOP-62 NSCLC = test system: HOP-62 NSCLC
RXF 393 renal = test system: RXF 393 renal
A498 renal = test system: A498 renal
HOP-92 NSCLC = test system: HOP-92 NSCLC
SK-OV-3 ovarian = test system: SK-OV-3 ovarian
SK-MEL-2 melanoma = test system: SK-MEL-2 melanoma
HCT-15 colon = test system: HCT-15 colon
NCI-H460 lung = test system: NCI-H460 lung
A549 NSCLC = test system: A549 NSCLC
PC-3 prostate = test system: PC-3 prostate
T-47D breast = test system: T-47D breast
U251 CNS = test system: U251 CNS
MDA-MB-435 = test system: MDA-MB-435
UO-31 renal = test system: UO-31 renal
CCRF-CEM leukemia = test system: CCRF-CEM leukemia
IGROV1 ovarian = test system: IGROV1 ovarian
DU-145 prostate = test system: DU-145 prostate
RPMI-8226 leukemia = test system: RPMI-8226 leukemia
MCF7 breast = test system: MCF7 breast
NCI/ADR-RES ovarian = test system: NCI/ADR-RES ovarian
LOX IMVI melanoma = test system: LOX IMVI melanoma
OVCAR-5 ovarian = test system: OVCAR-5 ovarian
KM12 colon = test system: KM12 colon
SN12C renal = test system: SN12C renal
HCC-2998 colon = test system: HCC-2998 colon
TK-10 renal = test system: TK-10 renal
OVCAR-8 ovarian = test system: OVCAR-8 ovarian
OVCAR-4 ovarian = test system: OVCAR-4 ovarian
SNB-75 CNS = test system: SNB-75 CNS
786-0 renal = test system: 786-0 renal
SK-MEL-5 melanoma = test system: SK-MEL-5 melanoma
EKVX NSCLC = test system: EKVX NSCLC

Q: O=C(OCc1nc2nc(Cl)nc(N3CCOCC3)c2[nH]1)n1ccnc1 was tested. Which GI50 (SW-620 colon) did it give?
A: 1500 nM

Q: And the TGI (SW-620 colon)?
A: 3320 nM

Q: And the GI50 (SF-539 CNS)?
A: 1480 nM

Q: And the TGI (SF-539 CNS)?
A: 2820 nM

Q: And the GI50 (MALME-3M melanoma)?
A: 1720 nM

Q: And the TGI (MALME-3M melanoma)?
A: 3220 nM

Q: What about the GI50 (ACHN renal) of the same molecule?
A: 1120 nM

Q: What about the TGI (ACHN renal) of the same molecule?
A: 2320 nM

Q: And the GI50 (SF-295 CNS)?
A: 10500 nM

Q: What about the TGI (SF-295 CNS) of the same molecule?
A: 22200 nM

Q: What about the GI50 (SNB-19 CNS) of the same molecule?
A: 2420 nM

Q: What about the TGI (SNB-19 CNS) of the same molecule?
A: 6460 nM

Q: And the GI50 (BT-549 breast)?
A: 2490 nM

Q: What about the TGI (BT-549 breast) of the same molecule?
A: 9490 nM

Q: What about the GI50 (COLO 205 colon) of the same molecule?
A: 1650 nM

Q: What about the TGI (COLO 205 colon) of the same molecule?
A: 3840 nM

Q: And the GI50 (OVCAR-3 ovarian)?
A: 1290 nM

Q: And the TGI (OVCAR-3 ovarian)?
A: 2790 nM

Q: What about the GI50 (K-562 leukemia) of the same molecule?
A: 1680 nM

Q: What about the TGI (K-562 leukemia) of the same molecule?
A: 8100 nM

Q: And the GI50 (HCT-116 colon)?
A: 650 nM

Q: And the TGI (HCT-116 colon)?
A: 3290 nM

Q: What about the GI50 (CAKI-1 renal) of the same molecule?
A: 1210 nM

Q: What about the TGI (CAKI-1 renal) of the same molecule?
A: 2840 nM

Q: And the GI50 (MDA-MB-231 breast)?
A: 1630 nM

Q: What about the TGI (MDA-MB-231 breast) of the same molecule?
A: 3380 nM

Q: What about the GI50 (HL-60(TB) leukemia) of the same molecule?
A: 1510 nM

Q: And the TGI (HL-60(TB) leukemia)?
A: 4550 nM

Q: And the GI50 (SR leukemia)?
A: 1090 nM

Q: And the TGI (SR leukemia)?
A: 5090 nM

Q: And the GI50 (UACC-62 melanoma)?
A: 1550 nM

Q: And the TGI (UACC-62 melanoma)?
A: 2940 nM

Q: What about the GI50 (UACC-257 melanoma) of the same molecule?
A: 1900 nM

Q: And the TGI (UACC-257 melanoma)?
A: 3940 nM

Q: And the GI50 (NCI-H23 lung)?
A: 2410 nM

Q: And the TGI (NCI-H23 lung)?
A: 5690 nM

Q: And the GI50 (NCI-H522 lung)?
A: 1710 nM

Q: What about the TGI (NCI-H522 lung) of the same molecule?
A: 4380 nM

Q: What about the GI50 (HS 578T breast) of the same molecule?
A: 1960 nM

Q: And the TGI (HS 578T breast)?
A: 5370 nM

Q: And the GI50 (MOLT-4 leukemia)?
A: 2290 nM

Q: And the TGI (MOLT-4 leukemia)?
A: 6470 nM

Q: And the GI50 (SF-268 CNS)?
A: 1740 nM

Q: What about the TGI (SF-268 CNS) of the same molecule?
A: 3600 nM

Q: And the GI50 (HT29 colon)?
A: 1590 nM

Q: And the TGI (HT29 colon)?
A: 4330 nM

Q: And the GI50 (SK-MEL-28 melanoma)?
A: 1740 nM

Q: What about the TGI (SK-MEL-28 melanoma) of the same molecule?
A: 3240 nM

Q: What about the GI50 (HOP-62 NSCLC) of the same molecule?
A: 1640 nM

Q: And the TGI (HOP-62 NSCLC)?
A: 4780 nM

Q: What about the GI50 (RXF 393 renal) of the same molecule?
A: 1610 nM

Q: What about the TGI (RXF 393 renal) of the same molecule?
A: 3060 nM

Q: And the GI50 (A498 renal)?
A: 2900 nM

Q: What about the TGI (A498 renal) of the same molecule?
A: 9830 nM

Q: And the GI50 (HOP-92 NSCLC)?
A: 1170 nM

Q: And the TGI (HOP-92 NSCLC)?
A: 3150 nM

Q: What about the GI50 (SK-OV-3 ovarian) of the same molecule?
A: 3400 nM

Q: And the TGI (SK-OV-3 ovarian)?
A: 14300 nM

Q: And the GI50 (SK-MEL-2 melanoma)?
A: 1950 nM

Q: What about the TGI (SK-MEL-2 melanoma) of the same molecule?
A: 4510 nM

Q: What about the GI50 (HCT-15 colon) of the same molecule?
A: 2060 nM

Q: What about the TGI (HCT-15 colon) of the same molecule?
A: 6450 nM

Q: What about the GI50 (NCI-H460 lung) of the same molecule?
A: 1860 nM

Q: What about the TGI (NCI-H460 lung) of the same molecule?
A: 4020 nM

Q: And the GI50 (A549 NSCLC)?
A: 3240 nM

Q: And the TGI (A549 NSCLC)?
A: 12900 nM

Q: And the GI50 (PC-3 prostate)?
A: 1690 nM

Q: And the TGI (PC-3 prostate)?
A: 3650 nM

Q: What about the GI50 (T-47D breast) of the same molecule?
A: 1880 nM

Q: And the TGI (T-47D breast)?
A: 4480 nM

Q: And the GI50 (U251 CNS)?
A: 1960 nM

Q: What about the TGI (U251 CNS) of the same molecule?
A: 4320 nM

Q: And the GI50 (MDA-MB-435)?
A: 1320 nM

Q: What about the TGI (MDA-MB-435) of the same molecule?
A: 2750 nM

Q: What about the GI50 (UO-31 renal) of the same molecule?
A: 1190 nM

Q: And the TGI (UO-31 renal)?
A: 2420 nM

Q: What about the GI50 (CCRF-CEM leukemia) of the same molecule?
A: 1170 nM

Q: What about the TGI (CCRF-CEM leukemia) of the same molecule?
A: 6920 nM

Q: And the GI50 (IGROV1 ovarian)?
A: 1320 nM

Q: And the TGI (IGROV1 ovarian)?
A: 2640 nM

Q: And the GI50 (DU-145 prostate)?
A: 1590 nM

Q: What about the TGI (DU-145 prostate) of the same molecule?
A: 3180 nM

Q: What about the GI50 (RPMI-8226 leukemia) of the same molecule?
A: 582 nM

Q: What about the TGI (RPMI-8226 leukemia) of the same molecule?
A: 3320 nM

Q: What about the GI50 (MCF7 breast) of the same molecule?
A: 1840 nM

Q: What about the TGI (MCF7 breast) of the same molecule?
A: 4910 nM

Q: And the GI50 (NCI/ADR-RES ovarian)?
A: 2570 nM

Q: And the TGI (NCI/ADR-RES ovarian)?
A: 8840 nM

Q: And the GI50 (LOX IMVI melanoma)?
A: 720 nM

Q: What about the TGI (LOX IMVI melanoma) of the same molecule?
A: 2170 nM

Q: What about the GI50 (OVCAR-5 ovarian) of the same molecule?
A: 1520 nM

Q: What about the TGI (OVCAR-5 ovarian) of the same molecule?
A: 3070 nM

Q: What about the GI50 (KM12 colon) of the same molecule?
A: 1880 nM

Q: And the TGI (KM12 colon)?
A: 4720 nM

Q: What about the GI50 (SN12C renal) of the same molecule?
A: 1380 nM

Q: And the TGI (SN12C renal)?
A: 2760 nM

Q: What about the GI50 (HCC-2998 colon) of the same molecule?
A: 2220 nM

Q: And the TGI (HCC-2998 colon)?
A: 4160 nM

Q: And the GI50 (TK-10 renal)?
A: 1940 nM

Q: What about the TGI (TK-10 renal) of the same molecule?
A: 4050 nM

Q: And the GI50 (OVCAR-8 ovarian)?
A: 2560 nM

Q: And the TGI (OVCAR-8 ovarian)?
A: 11000 nM

Q: What about the GI50 (OVCAR-4 ovarian) of the same molecule?
A: 1630 nM

Q: And the TGI (OVCAR-4 ovarian)?
A: 3380 nM

Q: What about the GI50 (SNB-75 CNS) of the same molecule?
A: 1040 nM

Q: What about the TGI (SNB-75 CNS) of the same molecule?
A: 3490 nM

Q: And the GI50 (786-0 renal)?
A: 1840 nM

Q: What about the TGI (786-0 renal) of the same molecule?
A: 3980 nM

Q: And the GI50 (SK-MEL-5 melanoma)?
A: 1830 nM

Q: And the TGI (SK-MEL-5 melanoma)?
A: 3350 nM

Q: What about the GI50 (EKVX NSCLC) of the same molecule?
A: 2040 nM

Q: And the TGI (EKVX NSCLC)?
A: 4660 nM
